Patent US11813285B2, “Stable pharmaceutical composition comprising esomeprazole and sodium bicarbonate” (CHONG KUN DANG PHARMACEUTICAL CORP., priority 2018, dated 2023)
Read-outs that look alike come from different tables or passages of the source. Each block holds one compound with its values, some of them ahead of it.

Columns and labels:
[1] = Stability test of esomeprazole and omeprazole according to pH; format: physicochemical; conditions: in % (unit assumed)
Protocol: <Analysis method> A) Detector: UV-Visible spectrophotometer (measurement wavelength:280 nm) B) Column: Inertsil C8-3 (4.6×150 mm, 5 μm) or equivalent column C) Injection amount: 20 μl D) Flow rate: 1.5 mL/min E) Column temperature: Constant temperature near 40° C. F) Sample temperature: Constant temperature near 10° C. […] H) Mobile phase: […] The buffer solution at pH 7.6 was prepared as follows: 0.725 g of sodium dihydrogen phosphate monohydrate (NaH2PO4.H2O) and 4.472 g of anhydrous disodium hydrogen phosphate (Na2HPO4) were weighed to be put in an 1 L volumetric flask and dissolved in purified water, followed by filling the flask with purified water up to the calibration mark. 250 mL of the liquid was taken to be put in an 1 L volumetric flask, followed by filling the flask with purified water up to the calibration mark and adjusting the pH to 7.6 with phosphoric acid.

[2] = for pH of simulated gastric juice: 200 mL simulated gastric juice + 200 mL purified water, 37° C.
Protocol: A pH was measured according to the change of the dose of sodium bicarbonate in a solution (37° C.) where 200 mL of purified water was put in 200 mL of simulated gastric juice.

assay of esomeprazole and omeprazole according to pH ([1]; buffer pH 4.0, 5 min): 64.1 | assay of esomeprazole and omeprazole according to pH ([1]; buffer pH 4.0, 10 min): 31.0 | assay of esomeprazole and omeprazole according to pH ([1]; buffer pH 4.0, 15 min): 15.9 | assay of esomeprazole and omeprazole according to pH ([1]; buffer pH 4.0, 30 min): 6.9 | assay of esomeprazole and omeprazole according to pH ([1]; buffer pH 4.0, 45 min): 1.7 | assay of esomeprazole and omeprazole according to pH ([1]; buffer pH 4.0, 60 min): 0.9 | assay of esomeprazole and omeprazole according to pH ([1]; buffer pH 4.0, 120 min): 0.1 | assay of esomeprazole and omeprazole according to pH ([1]; buffer pH 6.0, 5 min): 74.4 | assay of esomeprazole and omeprazole according to pH ([1]; buffer pH 6.0, 10 min): 72.8 | assay of esomeprazole and omeprazole according to pH ([1]; buffer pH 6.0, 15 min): 71.0 | assay of esomeprazole and omeprazole according to pH ([1]; buffer pH 6.0, 30 min): 68.9 | assay of esomeprazole and omeprazole according to pH ([1]; buffer pH 6.0, 45 min): 66.3 | assay of esomeprazole and omeprazole according to pH ([1]; buffer pH 6.0, 60 min): 63.6 | assay of esomeprazole and omeprazole according to pH ([1]; buffer pH 6.0, 120 min): 54.9 | assay of esomeprazole and omeprazole according to pH ([1]; buffer pH 6.8, 5 min): 95.6 | assay of esomeprazole and omeprazole according to pH ([1]; buffer pH 6.8, 10 min): 90.8 | assay of esomeprazole and omeprazole according to pH ([1]; buffer pH 6.8, 15 min): 90.5 | assay of esomeprazole and omeprazole according to pH ([1]; buffer pH 6.8, 30 min): 89.7 | assay of esomeprazole and omeprazole according to pH ([1]; buffer pH 6.8, 45 min): 88.9 | assay of esomeprazole and omeprazole according to pH ([1]; buffer pH 6.8, 60 min): 88.3 | assay of esomeprazole and omeprazole according to pH ([1]; buffer pH 6.8, 120 min): 86.2 | assay of esomeprazole and omeprazole according to pH ([1]; buffer pH 7.0, 5 min): 99.6 | assay of esomeprazole and omeprazole according to pH ([1]; buffer pH 7.0, 10 min): 99.0 | assay of esomeprazole and omeprazole according to pH ([1]; buffer pH 7.0, 15 min): 99.3 | assay of esomeprazole and omeprazole according to pH ([1]; buffer pH 7.0, 30 min): 98.9 | assay of esomeprazole and omeprazole according to pH ([1]; buffer pH 7.0, 45 min): 98.7 | assay of esomeprazole and omeprazole according to pH ([1]; buffer pH 7.0, 60 min): 98.1 | assay of esomeprazole and omeprazole according to pH ([1]; buffer pH 7.0, 120 min): 96.8 | assay of esomeprazole and omeprazole according to pH ([1]; buffer pH 7.3, 5 min): 100.1 | assay of esomeprazole and omeprazole according to pH ([1]; buffer pH 7.3, 10 min): 100.1 | assay of esomeprazole and omeprazole according to pH ([1]; buffer pH 7.3, 15 min): 100.0 | assay of esomeprazole and omeprazole according to pH ([1]; buffer pH 7.3, 30 min): 100.0 | assay of esomeprazole and omeprazole according to pH ([1]; buffer pH 7.3, 45 min): 100.0 | assay of esomeprazole and omeprazole according to pH ([1]; buffer pH 7.3, 60 min): 100.0 | assay of esomeprazole and omeprazole according to pH ([1]; buffer pH 7.3, 120 min): 99.90 | assay of esomeprazole and omeprazole according to pH ([1]; buffer pH 7.5, 5 min): 99.4 | assay of esomeprazole and omeprazole according to pH ([1]; buffer pH 7.5, 10 min): 99.3 | assay of esomeprazole and omeprazole according to pH ([1]; buffer pH 7.5, 15 min): 99.2 | assay of esomeprazole and omeprazole according to pH ([1]; buffer pH 7.5, 30 min): 99.1 | assay of esomeprazole and omeprazole according to pH ([1]; buffer pH 7.5, 45 min): 99.3 | assay of esomeprazole and omeprazole according to pH ([1]; buffer pH 7.5, 60 min): 99.1 | assay of esomeprazole and omeprazole according to pH ([1]; buffer pH 7.5, 120 min): 98.2 | assay of esomeprazole and omeprazole according to pH ([1]; buffer pH 8.0, 15 min): 101.1 | assay of esomeprazole and omeprazole according to pH ([1]; buffer pH 8.0, 30 min): 100.9 | assay of esomeprazole and omeprazole according to pH ([1]; buffer pH 8.0, 45 min): 100.7 | assay of esomeprazole and omeprazole according to pH ([1]; buffer pH 8.0, 60 min): 100.7 | assay of esomeprazole and omeprazole according to pH ([1]; buffer pH 8.0, 120 min): 100.0
SMILES: COc1ccc2[nH]c([S@@+]([O-])Cc3ncc(C)c(OC)c3C)nc2c1 [S-omeprazole, (S)-5-methoxy-2-[(4-methoxy-3,5-dimethyl-2-pyridinyl)-methyl]sulfinyl-1H-benzimidazol]

dose of sodium bicarbonate that can neutralize 200 mL of simulated gastric juice to show neutral pH ([2]; 200 mL simulated gastric juice): at least 600 mg | pH of simulated gastric juice ([2]; sodium bicarbonate 500 mg): 5.77 | pH of simulated gastric juice ([2]; sodium bicarbonate 600 mg): 6.51 | pH of simulated gastric juice ([2]; sodium bicarbonate 700 mg): 7.30 | pH of simulated gastric juice ([2]; sodium bicarbonate 800 mg): 7.30 | pH of simulated gastric juice ([2]; sodium bicarbonate 900 mg): 7.31 | pH of simulated gastric juice ([2]; sodium bicarbonate 1,000 mg): 7.37 | pH of simulated gastric juice ([2]; sodium bicarbonate 1,100 mg): 7.38 | pH of simulated gastric juice ([2]; sodium bicarbonate 1,200 mg): 7.38 | pH of simulated gastric juice ([2]; sodium bicarbonate 1,300 mg): 7.40
SMILES: O=C([O-])O.[Na+] [sodium bi-carbonate, sodium bicarbonate]

assay of esomeprazole and omeprazole according to pH ([1]; buffer pH 4.0, 5 min): 57.2 | assay of esomeprazole and omeprazole according to pH ([1]; buffer pH 4.0, 10 min): 29.4 | assay of esomeprazole and omeprazole according to pH ([1]; buffer pH 4.0, 15 min): 15.3 | assay of esomeprazole and omeprazole according to pH ([1]; buffer pH 4.0, 30 min): 6.7 | assay of esomeprazole and omeprazole according to pH ([1]; buffer pH 4.0, 45 min): 1.6 | assay of esomeprazole and omeprazole according to pH ([1]; buffer pH 4.0, 60 min): 0.8 | assay of esomeprazole and omeprazole according to pH ([1]; buffer pH 4.0, 120 min): 0.1 | assay of esomeprazole and omeprazole according to pH ([1]; buffer pH 6.0, 5 min): 74.9 | assay of esomeprazole and omeprazole according to pH ([1]; buffer pH 6.0, 10 min): 74.2 | assay of esomeprazole and omeprazole according to pH ([1]; buffer pH 6.0, 15 min): 71.7 | assay of esomeprazole and omeprazole according to pH ([1]; buffer pH 6.0, 30 min): 69.6 | assay of esomeprazole and omeprazole according to pH ([1]; buffer pH 6.0, 45 min): 65.4 | assay of esomeprazole and omeprazole according to pH ([1]; buffer pH 6.0, 60 min): 64.1 | assay of esomeprazole and omeprazole according to pH ([1]; buffer pH 6.0, 120 min): 55.1 | assay of esomeprazole and omeprazole according to pH ([1]; buffer pH 6.8, 5 min): 91.5 | assay of esomeprazole and omeprazole according to pH ([1]; buffer pH 6.8, 10 min): 90.5 | assay of esomeprazole and omeprazole according to pH ([1]; buffer pH 6.8, 15 min): 89.9 | assay of esomeprazole and omeprazole according to pH ([1]; buffer pH 6.8, 30 min): 89.8 | assay of esomeprazole and omeprazole according to pH ([1]; buffer pH 6.8, 45 min): 88.8 | assay of esomeprazole and omeprazole according to pH ([1]; buffer pH 6.8, 60 min): 88.3 | assay of esomeprazole and omeprazole according to pH ([1]; buffer pH 6.8, 120 min): 85.5 | assay of esomeprazole and omeprazole according to pH ([1]; buffer pH 7.0, 5 min): 100.5 | assay of esomeprazole and omeprazole according to pH ([1]; buffer pH 7.0, 10 min): 99.0 | assay of esomeprazole and omeprazole according to pH ([1]; buffer pH 7.0, 15 min): 98.9 | assay of esomeprazole and omeprazole according to pH ([1]; buffer pH 7.0, 30 min): 98.2 | assay of esomeprazole and omeprazole according to pH ([1]; buffer pH 7.0, 45 min): 97.9 | assay of esomeprazole and omeprazole according to pH ([1]; buffer pH 7.0, 60 min): 97.5 | assay of esomeprazole and omeprazole according to pH ([1]; buffer pH 7.0, 120 min): 95.8 | assay of esomeprazole and omeprazole according to pH ([1]; buffer pH 7.3, 5 min): 99.8 | assay of esomeprazole and omeprazole according to pH ([1]; buffer pH 7.3, 10 min): 100.0 | assay of esomeprazole and omeprazole according to pH ([1]; buffer pH 7.3, 15 min): 99.9 | assay of esomeprazole and omeprazole according to pH ([1]; buffer pH 7.3, 30 min): 99.8 | assay of esomeprazole and omeprazole according to pH ([1]; buffer pH 7.3, 45 min): 99.8 | assay of esomeprazole and omeprazole according to pH ([1]; buffer pH 7.3, 60 min): 99.8 | assay of esomeprazole and omeprazole according to pH ([1]; buffer pH 7.3, 120 min): 99.86 | assay of esomeprazole and omeprazole according to pH ([1]; buffer pH 7.5, 5 min): 100.5 | assay of esomeprazole and omeprazole according to pH ([1]; buffer pH 7.5, 10 min): 99.7 | assay of esomeprazole and omeprazole according to pH ([1]; buffer pH 7.5, 15 min): 99.7 | assay of esomeprazole and omeprazole according to pH ([1]; buffer pH 7.5, 30 min): 99.4 | assay of esomeprazole and omeprazole according to pH ([1]; buffer pH 7.5, 45 min): 99.2 | assay of esomeprazole and omeprazole according to pH ([1]; buffer pH 7.5, 60 min): 98.9 | assay of esomeprazole and omeprazole according to pH ([1]; buffer pH 7.5, 120 min): 98.2 | assay of esomeprazole and omeprazole according to pH ([1]; buffer pH 8.0, 15 min): 99.7 | assay of esomeprazole and omeprazole according to pH ([1]; buffer pH 8.0, 30 min): 99.6 | assay of esomeprazole and omeprazole according to pH ([1]; buffer pH 8.0, 45 min): 99.5 | assay of esomeprazole and omeprazole according to pH ([1]; buffer pH 8.0, 60 min): 99.5 | assay of esomeprazole and omeprazole according to pH ([1]; buffer pH 8.0, 120 min): 98.6
SMILES: COc1ccc2[nH]c([S+]([O-])Cc3ncc(C)c(OC)c3C)nc2c1 (centres unmarked) [Omeprazole, 5-methoxy-2-[(4-methoxy-3,5-dimethyl-2-pyridinyl)methyl]sulfinyl-1H-benzimidazol]
